Here are results for 1 compound from patent US8623331B2, “Compressed chewing gum tablet” (Fertin Pharma A/S, priority 2007, dated 2014).

The nature of data set [1]: Release control, different size of applied chewing gum granules (two-module compressed chewing gum tablet). Conditions: first layer: NPR with granules of relatively smaller average diameter; second layer: Na2CO3 with granules of relatively larger average diameter. The procedure: (§1) Control of the release was tested for chewing gum tablets comprising two modules with different gum base content and a different active ingredient in each of them.
In this example a gum base content different with respect to size of applied chewing gum granules was investigated.
In the first layer the active ingredient (NPR) was present with chewing gum granules with a relatively smaller average diameter and in the second layer the active ingredient (Na2CO3 pH control agent) was present with chewing gum granules with a relatively larger average diameter.
To ensure that the result of this example was not due to different API in the two layers, the example was further supplemented with a test with the same API in two compositions of different chewing gum granule sizes. Here it was again seen that the release was dependent on the size of the chewing gum granules used in the layers of the gum base content in the chewing gum composition.

The nature of data set [2]: Release control, gum base content different with respect to composition (two-module compressed chewing gum tablet). As to conditions: first layer: NPR outside the gum base granules; second layer: Na2CO3 approx. 50 Wt-% outside and approx. 50 Wt-% incorporated in the granules. On the procedure:
as §1
In this example a gum base content different with respect to composition was investigated. In the first layer the active ingredient (NPR) was added to the chewing gum composition outside the gum base granules and in the second layer the active ingredient (Na2CO3 pH control agent) was added approximately 50 Wt-% to the chewing gum composition outside the gum base granules and approximately 50 Wt-% incorporated in the granules.
To ensure that the result of this example was not due to different API in the two layers, the example was further supplemented with a test with the same amount of a same API incorporated in the granules and added directly to the composition respectively, where it was again seen that the release was dependent on the chewing gum composition

Data set [3] in a line: Release control, gum base content different with respect to weight (two-module compressed chewing gum tablet). As to conditions: first layer: NPR with a large amount of gum base; second layer: Na2CO3 with a small amount of gum base. The procedure:
as §1
In this example a gum base content different with respect to weight was investigated. In the first layer the active ingredient (NPR) was present with a large amount of gum base and in the second layer the active ingredient (Na2CO3 pH control agent) was present with a small amount of gum base.
To ensure that the result of this example was not due to different API in the two layers, the example was further supplemented with a test with two different weights of the same API in the compositions in the two layers, where it was again seen that the release was dependent on the weight of the gum base content in the chewing gum composition.

“Also recorded” adds a separate entry of the source.

Regarding `O=C([O-])[O-].[Na+].[Na+]` [Na2CO3], the “release of active ingredient from the chewing gum tablet” value in data set [1] is “faster than the release of the NPR”; in data set [2] it was “fast release of part of the pH control agent; also recorded: slower release of the remaining part of the pH control agent”; in data set [3], “faster than the release of the NPR”.
